Results published in patent US6875865B1, “Selected derivatives of K-252a” (Cephalon, Inc., priority 1996, dated 2005).

Key:
basal forebrain cultures = experiment: Basal Forebrain ChAT Activity Assay; format: cell-based, rat; conditions: day six
Method: Compounds of the invention were assessed for their ability to promote survival and increase in ChAT activity in basal forebrain cultures. ChAT activity in these cultures is a biochemical marker for the cholinergic neurons (less than 5% of the cells in culture), which represent the major cholinergic input to the hippocampal formation, olfactory nucleus, interpeduncular nucleus, cortex, amygdala, and parts of the thalamus. […] The basal forebrain was dissected from embryonic day 17 or 18 rat embryos and the cells were […] with Dispase™ (neutral protease, Collaborative Research). Neurons were plated at 5×10^4 cells/well (1.5×10^5 cells/cm^2) in wells of 96-well plates previously coated with […] and laminin. Cells were cultured in serum-free N2 medium containing 0.05% bovine serum albumin (BSA) (Bottenetein et al., supra) at 37° in a humidified atmosphere of 5% CO2/95% air. ChAT activity was measured in vitro at day six, using a modification of the Formum procedure (supra) according to McManaman et al. (supra) and Glicksman et al. (J. Neurochem. 61:210-221, 1993).
(§1) Compounds which increased ChAT activity at least 120% of the control activity are considered active.

[1] = test system: dissociated spinal cord cultures; experiment: Spinal Cord ChAT Activity Assay; format: cell-based, rat
Method: The effect of selected ring substituted K-252a derivatives on CHAT activity was assayed in dissociated spinal cord cultures prepared from fetal rats using the procedure described in U.S. Pat. No. 5,461,146, Columns 26 and 27, Examples 6 and 7. ChAT is the enzyme that catalyzes the synthesis of the neurotransmitter acetylcholine, and it is a specific biochemical marker for cholinergic neurons. In the spinal cord, the large majority of cholinergic neurons are motor neurons. Assay of this enzyme may thus be used as an indication of the effects of a factor, or actors, on the survival of cholinergic neurons and/or regulation of this enzyme.
as §1

protein kinase C (PKC) = conditions: reported in the literature; cited from earlier work
[2] = concentration not given, tested between 10 nM and 500 nM, at least 120% of control = active
[3] = concentration not given, at least 120% of control = active

SMILES | ChAT Activity maximum efficacy % of Control (conc) ([1]; maximum efficacy at 300 nM) | ChAT Activity maximum efficacy % of Control (conc) (basal forebrain cultures; maximum efficacy at 250 nM) | other results
CCOC(=O)C=Cc1ccc2c(c1)c1c3c(c4c5ccccc5n5c4c1n2C1(C)OC5CC1(O)C(=O)OC)C(=O)NC3 (stereo not drawn) [Compound 12] | 269 (300 nM) % of Control | – | ChAT Activity maximum efficacy % of Control (conc) (basal forebrain cultures; maximum efficacy at 500 nM): 184 (500 nM) % of Control
COC(=O)C1(O)CC2OC1(C)n1c3ccc(C=Cc4ccccn4)cc3c3c4c(c5c6ccccc6n2c5c31)C(=O)NC4 (stereo not drawn) [Compound 13] | – | – | ChAT Activity maximum efficacy % of Control (conc) (basal forebrain cultures; maximum efficacy at 100 nM): 167 (100 nM) % of Control; ChAT Activity maximum efficacy % of Control (conc) ([1]; maximum efficacy at 30 nM): 271 (30 nM) % of Control
COC(=O)C1(O)CC2OC1(C)n1c3ccc(CCc4ccccn4)cc3c3c4c(c5c6ccccc6n2c5c31)C(=O)NC4 (stereo not drawn) [Compound 14] | 282 (300 nM) % of Control | – | ChAT Activity maximum efficacy % of Control (conc) (basal forebrain cultures; maximum efficacy at 500 nM): 229 (500 nM) % of Control
CCSCC(=O)c1ccc2c(c1)c1c3c(c4c5ccccc5n5c4c1n2C1(C)OC5CC1(O)C(=O)OC)C(=O)NC3 (stereo not drawn) [Compound 41] | 204 (300 nM) % of Control | – | ChAT Activity maximum efficacy % of Control (conc) (basal forebrain cultures; [2]): <120 % of Control
COC(=O)C1(O)CC2OC1(C)n1c3ccc(C(=O)CSc4nnnn4C)cc3c3c4c(c5c6cc(C(=O)CSc7nnnn7C)ccc6n2c5c31)C(=O)NC4 (stereo not drawn) [Compound 52] | – | – | ChAT Activity maximum efficacy % of Control (conc) (basal forebrain cultures; [2]): <120 % of Control; ChAT Activity maximum efficacy % of Control (conc) [1, 3]: <120 % of Control
COCCC(=O)c1ccc2c(c1)c1c3c(c4c5cc(C(=O)CCOC)ccc5n5c4c1n2C1CC(O)(C(=O)OC)C5(C)O1)CNC3=O (stereo not drawn) [Compound 54] | – | 167 (250 nM) % of Control | ChAT Activity maximum efficacy % of Control (conc) [1, 3]: <120 % of Control
COC(=O)C1(O)CC2OC1(C)n1c3ccc(C(O)CCCl)cc3c3c4c(c5c6cc(C(O)CCCl)ccc6n2c5c31)C(=O)NC4 (stereo not drawn) [Compound 59] | 160 (300 nM) % of Control | 131 (250 nM) % of Control | –
COC(=O)C1(O)CC2OC1(C)n1c3ccc(C#CCN(C)Cc4ccccc4)cc3c3c4c(c5c6cc(Br)ccc6n2c5c31)C(=O)NC4 (stereo not drawn) [Compound 62] | 235 (300 nM) % of Control | – | ChAT Activity maximum efficacy % of Control (conc) (basal forebrain cultures; maximum efficacy at 50 nM): 202 (50 nM) % of Control
CCC=Cc1ccc2c(c1)c1c3c(c4c5cc(C=CCC)ccc5n5c4c1n2C1CC(O)(C(=O)OC)C5(C)O1)CNC3=O (stereo not drawn) [Compound 68] | 291 (300 nM) % of Control | 290 (250 nM) % of Control | –
COC(=O)C1(O)CC2OC1(C)n1c3ccc(CCO)cc3c3c4c(c5c6cc(CCO)ccc6n2c5c31)C(=O)NC4 (stereo not drawn) [Compound 70c] | 186 (300 nM) % of Control | 203 (250 nM) % of Control | –
COC(=O)C1(O)CC2OC1(C)n1c3ccc(CCOC(=O)c4ccncc4)cc3c3c4c(c5c6cc(CCOC(=O)c7ccncc7)ccc6n2c5c31)C(=O)NC4 (stereo not drawn) [Compound 71] | 193 (300 nM) % of Control | 152 (250 nM) % of Control | –
COC(=O)C1(O)CC2OC1(C)n1c3ccc(CCN=[N+]=[N-])cc3c3c4c(c5c6cc(CCN=[N+]=[N-])ccc6n2c5c31)C(=O)NC4 (stereo not drawn) [Compound 81] | 131 (300 nM) % of Control | – | ChAT Activity maximum efficacy % of Control (conc) (basal forebrain cultures; [2]): <120 % of Control
COC(=O)C1(O)CC2OC1(C)n1c3ccc(CCSC)cc3c3c4c(c5c6cc(CCSC)ccc6n2c5c31)C(=O)NC4 (stereo not drawn) [Compound 87] | 294 (300 nM) % of Control | 262 (250 nM) % of Control | –
CCSCCc1ccc2c(c1)c1c3c(c4c5cc(CCSCC)ccc5n5c4c1n2C1CC(O)(C(=O)OC)C5(C)O1)CNC3=O (stereo not drawn) [Compound 88] | 190 (300 nM) % of Control | – | ChAT Activity maximum efficacy % of Control (conc) (basal forebrain cultures; [2]): <120 % of Control
COC(=O)C1(O)CC2OC1(C)n1c3ccc(CCSc4ccc(O)cc4)cc3c3c4c(c5c6cc(CCSc7ccc(O)cc7)ccc6n2c5c31)C(=O)NC4 (stereo not drawn) [Compound 91] | – | – | ChAT Activity maximum efficacy % of Control (conc) (basal forebrain cultures; [2]): <120 % of Control; ChAT Activity maximum efficacy % of Control (conc) [1, 3]: <120 % of Control
COC(=O)C1(O)CC2OC1(C)n1c3ccc(CCSc4ccccn4)cc3c3c4c(c5c6cc(CCSc7ccccn7)ccc6n2c5c31)C(=O)NC4 (stereo not drawn) [Compound 94] | 152 (300 nM) % of Control | 166 (250 nM) % of Control | –
COC(=O)C1(O)CC2OC1(C)n1c3ccc(CCCSC)cc3c3c4c(c5c6cc(CCCSC)ccc6n2c5c31)C(=O)NC4 (stereo not drawn) [Compound 95] | 272 (300 nM) % of Control | 239 (250 nM) % of Control | –
CCOCOCc1ccc2c(c1)c1c3c(c4c5cc(COCOCC)ccc5n5c4c1n2C1CC(O)(C(=O)OC)C5(C)O1)CNC3=O (stereo not drawn) [Compound 156] | 217 (300 nM) % of Control | – | –
COC(=O)C1(O)CC2OC1(C)n1c3ccccc3c3c4c(c5c6ccccc6n2c5c31)C(=O)NC4 (stereo not drawn) [Compound K-252a, K-252a] | – | – | inhibition of protein kinase C (PKC) (protein kinase C (PKC)): strongly inhibits
